Experimental data reported in PubChem BioAssay AID1919005 (Molecular Pharmacology Branch, DTP, NCI, 2023).

System: 855422-203-R-J1-PDC complex spheroid growth
Test: Anticancer human tumor 855422-203-R-J1-PDC patient-derived bladder carcinoma cell line growth inhibition [AhR]
Details: for IC50: curve of first compound; for viability, T/C: stronger effect = lower value; active = viability on the fitted dose curve at most 10% of control; inactive = the rest
Source text: Multicellular complex tumor spheroid response to aryl hydrocarbon receptor antagonists in combination with a variety of drugs and investigational agents in selected tumor cell lines
The current study was undertaken to assess response to aryl hydrocarbon receptor antagonists in combination with standard-of-care drugs and investigational agents in solid tumor complex spheroid models. Complex spheroids include a stromal component modeled by human endothelial cells (HUVEC) and fibroblasts modeled by human mesenchymal stem cells (MSCs). The concentration ranges selected for each drug and investigational agent were based upon clinically achievable concentrations if the clinical Cmax of the agent was known.
Compounds. The drugs and investigational agents: BAY 2416964 (NSC825713), GNF351 (NSC835774), CH-223191 (NSC835775), CPI-455 (NSC825282), aza-TdCyd (NSC777586), decitabine (NSC127716), belinostat (NSC758774), entinostat (NSC756642), pevonedistat (NSC761192), tazemetostat (NSC777109), talazoparib (NSC765396), olaparib (NSC753686), selinexor (NSC780203), nedisertib (M3814, NSC802822), bortezomib (NSC756655), venetoclax (NSC766270), doxorubicin (NSC123127), elimusertib (BAY189344, NSC800525), ceralasertib (AZD6738, NSC777638), TAK-243 (NSC785004), alisertib (NSC759677), etoposide (NSC141540), topotecan (NSC609699), eribulin (NSC707389), gemcitabine (NSC613327), carboplatin (NSC241240), cisplatin (NSC119875), and SN-38 (NSC673596) were obtained from the National Cancer Institute (NCI) Developmental Therapeutics Program Chemical Repository (32). The FDA-approved anticancer drug set is available from the Developmental Therapeutics Program at https://dtp.cancer.gov/organization/dscb/obtaining/available plates.htm. […] The stock solutions were prepared in dimethyl sulfoxide (DMSO, Sigma-Aldrich, St. Louis, MO, cat. D2650), except for the platinum compounds which were prepared in saline (Quality Biological, Gaithersburg, MD, cat. 114-055-101), at 800-fold the tested concentration and stored at -70 degrees C prior to their use. All drugs and investigational agents were tested over a range starting from a high concentration at or near the clinical Cmax and decreasing in half-log increments. If the clinical Cmax for an agent had not been determined, the highest concentration tested was 10 microM (Table 1).
Cell Culture. All cells were maintained in an incubator at 37 degrees C and 5% CO2 with 95% humidity. The PDC lines were cultured according to standard operating procedures established by the NCI PDMR (https://pdmr.cancer.gov). Briefly, all PDCs were thawed and cultured in Matrigel-coated flasks prepared with a working solution of 1X Ham's F-12 nutrient mix, without supplementation (Invitrogen, Waltham, MA, cat. 11765054), 100 U/mL penicillin-streptomycin (Invitrogen, cat. 15140122), and 2.5% Matrigel (Corning Inc., Corning, NY, cat. 354248) for the first three passages. All PDCs were cultured in complete DMEM/F-12 media containing advanced DMEM/F-12 (Invitrogen, cat. 12634028), 4.9% defined fetal bovine serum, heat inactivated (HyClone Laboratories Inc., Logan, UT, cat. SH30070.03HI), 389 ng/mL hydrocortisone (Sigma-Aldrich, cat. H4001), 9.7 ng/mL human EGF recombinant protein (Invitrogen, cat. PHG0313), 23.4 microg/mL adenine (Sigma-Aldrich, cat. A2786), 97.3 U/mL penicillin-streptomycin (Invitrogen, cat. 15140122), 1.9 mM L-glutamine (Invitrogen, cat. 25030081), and 9.7 microM Y-27632 dihydrochloride (Tocris Bioscience, Bristol, United Kingdom, cat. 1254). The PDCs were cultured in complete DMEM/F12 media without 10 microM Y-27632 dihydrochloride for at least two passages prior to the screen. The established cell lines NCI-H1341 and […] were cultured in DMEM/F-12, HEPES (Invitrogen, cat. 11330032), 5% defined fetal bovine serum (HyClone Laboratories Inc., cat. SH30070.03), ITS premix universal culture supplement [insulin (5 microg/mL), transferrin (5 microg/mL), and selenious acid (5 ng/mL)] […]

[1] = second compound 0.1 µM, first compound 0.0316 µM
[2] = second compound 0.1 µM, first compound 0.1 µM
[3] = second compound 0.316 µM, first compound 0.0316 µM
[4] = second compound 0.316 µM, first compound 0.1 µM
[5] = second compound 1 µM, first compound 0.0316 µM
[6] = second compound 1 µM, first compound 0.1 µM
[7] = second compound 3.16 µM, first compound 0.0316 µM
[8] = second compound 3.16 µM, first compound 0.1 µM
[9] = second compound 10 µM, first compound 0.0316 µM
[10] = second compound 10 µM, first compound 0.1 µM
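Note: spheroids exposed to agents for seven days before readout.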
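Throughout, for viability, T/C: percent of DMSO vehicle control luminescence viability.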

CC[C@@]1(O)C(=O)OCc2c1cc1n(c2=O)Cc2cc3c(CN(C)C)c(O)ccc3nc2-1 + CC(CO)NC(=O)c1cc(-c2ccc(Cl)cc2)nn(-c2cnn(C)c2)c1=O
56.4 nM: IC50 (second compound 1 µM)
45.1 nM: IC50 (second compound 10 µM)
inactive: viability, T/C (second compound 0.1 µM, first compound 0.000316 µM) 96.7% | viability, T/C (second compound 0.1 µM, first compound 0.001 µM) 97.5% | viability, T/C (second compound 0.1 µM, first compound 0.00316 µM) 93.7% | viability, T/C (second compound 0.1 µM, first compound 0.01 µM) 102% | viability, T/C [1] 86.5% | viability, T/C [2] 20.9% | viability, T/C (second compound 0.316 µM, first compound 0.000316 µM) 106% | viability, T/C (second compound 0.316 µM, first compound 0.001 µM) 100% | viability, T/C (second compound 0.316 µM, first compound 0.00316 µM) 98.8% | viability, T/C (second compound 0.316 µM, first compound 0.01 µM) 98.9% | viability, T/C [3] 87.3% | viability, T/C [4] 17.9% | viability, T/C (second compound 1 µM, first compound 0.000316 µM) 104% | viability, T/C (second compound 1 µM, first compound 0.001 µM) 97.8% | viability, T/C (second compound 1 µM, first compound 0.00316 µM) 105% | viability, T/C (second compound 1 µM, first compound 0.01 µM) 104% | viability, T/C [5] 84.9% | viability, T/C [6] 15.5% | viability, T/C (second compound 3.16 µM, first compound 0.000316 µM) 99.4% | viability, T/C (second compound 3.16 µM, first compound 0.001 µM) 96.6% | viability, T/C (second compound 3.16 µM, first compound 0.00316 µM) 93% | viability, T/C (second compound 3.16 µM, first compound 0.01 µM) 95.5% | viability, T/C [7] 83.5% | viability, T/C [8] 13% | viability, T/C (second compound 10 µM, first compound 0.000316 µM) 86.2% | viability, T/C (second compound 10 µM, first compound 0.001 µM) 100% | viability, T/C (second compound 10 µM, first compound 0.00316 µM) 102% | viability, T/C (second compound 10 µM, first compound 0.01 µM) 96.3% | viability, T/C [9] 65.8% | viability, T/C [10] 14.8%
60.2 nM: IC50 (second compound 0.1 µM)
58.6 nM: IC50 (second compound 0.316 µM)
54.7 nM: IC50 (second compound 3.16 µM)

COc1cc(C2c3cc4c(cc3C(OC3OC5COC(C)OC5C(O)C3O)C3COC(=O)C23)OCO4)cc(OC)c1O (stereo not given) + CC(CO)NC(=O)c1cc(-c2ccc(Cl)cc2)nn(-c2cnn(C)c2)c1=O
inactive: viability, T/C [1] 104% | viability, T/C [2] 93.5% | viability, T/C (second compound 0.1 µM, first compound 0.316 µM) 72.9% | viability, T/C (second compound 0.1 µM, first compound 1 µM) 25.6% | viability, T/C (second compound 0.1 µM, first compound 3.16 µM) 12.7% | viability, T/C [3] 94.2% | viability, T/C [4] 96% | viability, T/C (second compound 0.316 µM, first compound 0.316 µM) 75.6% | viability, T/C (second compound 0.316 µM, first compound 1 µM) 25.4% | viability, T/C [5] 98.5% | viability, T/C [6] 103% | viability, T/C (second compound 1 µM, first compound 0.316 µM) 64.3% | viability, T/C (second compound 1 µM, first compound 1 µM) 25.6% | viability, T/C [7] 89.5% | viability, T/C [8] 91.8% | viability, T/C (second compound 3.16 µM, first compound 0.316 µM) 48.2% | viability, T/C (second compound 3.16 µM, first compound 1 µM) 19.4% | viability, T/C [9] 96.2% | viability, T/C [10] 82.3% | viability, T/C (second compound 10 µM, first compound 0.316 µM) 37.1% | viability, T/C (second compound 10 µM, first compound 1 µM) 24.3%
active: viability, T/C (second compound 0.1 µM, first compound 10 µM) 6.98% | viability, T/C (second compound 0.316 µM, first compound 3.16 µM) 12.1% | viability, T/C (second compound 0.316 µM, first compound 10 µM) 5.1% | viability, T/C (second compound 1 µM, first compound 3.16 µM) 11.1% | viability, T/C (second compound 1 µM, first compound 10 µM) 4.66% | viability, T/C (second compound 3.16 µM, first compound 3.16 µM) 9.59% | viability, T/C (second compound 3.16 µM, first compound 10 µM) 3.77% | viability, T/C (second compound 10 µM, first compound 3.16 µM) 8.67% | viability, T/C (second compound 10 µM, first compound 10 µM) 4.32%
327 nM: IC50 (second compound 3.16 µM)
573 nM: IC50 (second compound 0.316 µM)
551 nM: IC50 (second compound 0.1 µM)
498 nM: IC50 (second compound 1 µM)
251 nM: IC50 (second compound 10 µM)
